Laboratory results from patent US20220324835A1 (Nurix Therapeutics, Inc., priority 2018, published 2022).

Assays:
Assay type in all cases: cell-based
[1] = system: primary human total T-cells; assay: T-cell activation assessed by cytokine secretion (GM-CSF, IFNγ, TNFα)
Description: (§1) Peripheral blood mononuclear cells (PBMC) were obtained either: 1) by using Ficoll-Paque™ (GE Healthcare) for separation of peripheral blood hematopoietic cells from buffy coats of healthy human donors; or 2) directly from FeukoPak donations. Total human primary T-cells were isolated from the PMBCs utilizing negative selection with commercial kits following the manufacturer's protocol (Miltenyi Catalog #130-096-535 (i.e., cocktail of antibodies against surface markers CD14, CD15, CD16, CD19, CD34, CD36, CD56, CD123 and CD235a are incubated with the PBMCs before passing the samples by magnetic beads for removal of cells expressing those surface markers) or StemCells Catalog #17951) to yield >95% CD3+ cells as assessed by flow cytometry. For measurement of cell proliferation, cells were labeled with Cell Trace Violet (Invitrogen) following manufacturer's protocol prior to activation by stimulation with anti-CD3 antibody alone or in combination with anti-CD28 antibody. The Cbl-b inhibitor was added to 1×10^5 cells per well at multiple concentrations (e.g., 10 μM, 1.11 μM, or 0.123 μM) with a final DMSO concentration of <0.1%. The plate was incubated for one hour at 37° C. in 5% CO2. Following incubation with the Cbl-b inhibitor, primary human total T-cells were stimulated with either plate bound anti-CD3 antibody (OKT3) alone or plate bound anti-CD3 antibody (OKT3) with soluble anti-CD28 antibody (28.2) (Life Technologies). To prepare plates with plate bound anti-CD3 antibody (OKT3), 96-well round bottom tissue culture plates were coated with 100 μl of anti-CD3 antibody (OKT3) at 10 μg/mL for 4 hours at 37° C. 5% CO2 in phosphate buffered saline (PBS). The plates were washed with PBS prior to adding the cells with or without soluble anti-CD28 antibody (28.2) to each well at a final concentration of 5 μg/mL. Cells were stimulated for 48 hours prior to harvesting the cell free supernatant and staining the cell population for surface marker assessment by flow cytometry. Supernatants were analyzed for cytokine secretion (e.g., GM-CSF, IFNγ and TNFα) by ELISA (R&D Systems, Peprotech or Life Technologies) or Luminex multiplex kits (Procarta Life Technologies) following manufacturer's protocol. Cells were stained with anti-CD69 (BD Biosciences) to assess levels of surface markers of activation. Proliferation was measured by flow cytometry and data was analyzed with FlowJo v7.6.5 or v10. Readouts were reported as fold change over baseline. In some embodiments, baseline was the measurement obtained from total human T-cells stimulated with anti-CD3 antibody alone, wherein the cells were not incubated with a Cbl-b inhibitor. In some embodiments, baseline was the measurement obtained from total human T-cells stimulated with anti-CD3 antibody and anti-CD28 antibody, where the cells were not incubated with a Cbl-b inhibitor.
(§2) Cbl-b inhibitors were tested to determine their ability to induce or enhance secretion of cytokines from T-cells (e.g., GM-CSF, IFNγ and TNFα) and/or surface expression of cell surface markers on T-cells (e.g., CD69) that is indicative of T-cell activation. Cbl-b inhibitors were also tested to determine their ability to induce or enhance T-cell proliferation. Cbl-b inhibitors were tested for their effects on T-cell activation in the presence of costimulation and where conditions were suboptimal for priming.
(§3) Readouts for T-cell activation were reported as fold change over baseline. Baseline for this study was the measurement obtained from total human T-cells stimulated with anti-CD3 antibody alone or anti-CD3 antibody in combination with soluble anti-CD28 antibody, where the cells were not incubated with a Cbl-b inhibitor. For T-cells stimulated with anti-CD3/anti-CD28 or with anti-CD3 alone changes greater than 1,2-fold over baseline for % positive CD69 staining and greater than 2-fold over baseline for % total proliferating cells were considered a significant and positive response (Table 4a). […]

[2] = system: primary human total T-cells; assay: T-cell activation assessed by CD69 expression
Description: as §1, §2, §3

[3] = system: primary human total T-cells; assay: T-cell activation assessed by cell proliferation (Cell Trace Violet)
Description: as §1, §2, §3

[4] = CD3/CD28 stimulation, read-out: GM-CSF secretion
[5] = CD3/CD28 stimulation, read-out: IFNγ secretion
[6] = CD3/CD28 stimulation, read-out: TNFα secretion
[7] = CD3 alone stimulation, read-out: GM-CSF secretion
[8] = CD3 alone stimulation, read-out: IFNγ secretion
[9] = CD3 alone stimulation, read-out: TNFα secretion
[10] = CD3/CD28 stimulation, CD4 T-cells, read-out: % CD69+ (CD4)
[11] = CD3/CD28 stimulation, CD8 T-cells, read-out: % CD69+ (CD8)
[12] = CD3 alone stimulation, CD4 T-cells, read-out: % CD69+ (CD4)
[13] = CD3 alone stimulation, CD8 T-cells, read-out: % CD69+ (CD8)
[14] = CD3/CD28 stimulation, CD4 T-cells, read-out: % CP (cell proliferation) (CD4)
[15] = CD3/CD28 stimulation, CD8 T-cells, read-out: % CP (cell proliferation) (CD8)
[16] = CD3 alone stimulation, CD8 T-cells, read-out: % CP (cell proliferation) (CD8)

Compound	fold induction at 1.11 µM [1, 4]	fold induction at 1.11 µM [1, 5]	fold induction at 1.11 µM [1, 6]	fold induction at 10 µM [1, 4]	fold induction at 10 µM [1, 5]	fold induction at 10 µM [1, 6]	fold induction at 1.11 µM [1, 7]	fold induction at 1.11 µM [1, 8]	fold induction at 1.11 µM [1, 9]	fold induction at 10 µM [1, 7]	fold induction at 10 µM [1, 8]	fold induction at 10 µM [1, 9]	fold induction at 1.11 µM [2, 10]	fold induction at 10 µM [2, 10]	fold induction at 1.11 µM [2, 11]	fold induction at 10 µM [2, 11]	fold induction at 1.11 µM [2, 12]	fold induction at 10 µM [2, 12]	fold induction at 1.11 µM [2, 13]	fold induction at 10 µM [2, 13]	further results
Cc1cc(C(=O)Nc2cccc([C@@H](C)Cc3nncn3C)c2)nc(C2CC2)n1 [Compound 325, (S)-2-Cyclopropyl-6-methyl-N-(3-(1-(4-methyl-4H-1,2,4-triazol-3-yl)propan-2-yl)phenyl)pyrimidine-4-carboxamide]	1.51 to 2	3.01 to 4	≤ 1.5	2.01 to 4	> 4	2.01 to 4	≤ 1.5	< 2	≤ 1.5	1.51 to 2	< 2	≤ 1.5	1.4 to 1.6	1.4 to 1.6	1.2 to 1.4	1.2 to 1.4	1.4 to 1.6	> 1.6	≤ 1.2	1.2 to 1.4	fold induction at 1.11 µM [3, 14]: > 4; fold induction at 10 µM [3, 14]: > 4; fold induction at 1.11 µM [3, 15]: 2.01 to 3; fold induction at 10 µM [3, 15]: > 4; fold induction at 1.11 µM [3, 16]: 2.01 to 3; fold induction at 10 µM [3, 16]: > 4
Cn1cnnc1CC1(c2cccc(NC(=O)c3nc4c(C(F)(F)F)cccc4[nH]3)c2)COC1 [Compound 335, N-(3-{3-[(4-methyl-1,2,4-triazol-3-yl)methyl]oxetan-3-yl}phenyl)-4-(trifluoromethyl)-1H-1,3-benzodiazole-2-carboxamide]	1.51 to 2	> 4	1.51 to 2	> 4	2.01 to 3	2.01 to 4	≤ 1.5	< 2	1.51 to 2	2.01 to 4	2.01 to 3	1.51 to 2	1.4 to 1.6	> 1.6	1.2 to 1.4	1.2 to 1.4	> 1.6	> 1.6	1.2 to 1.4	1.4 to 1.6	fold induction at 1.11 µM [3, 14]: > 4; fold induction at 10 µM [3, 14]: > 4; fold induction at 1.11 µM [3, 15]: 3.01 to 4; fold induction at 10 µM [3, 15]: 3.01 to 4; fold induction at 1.11 µM [3, 16]: > 4; fold induction at 10 µM [3, 16]: > 4
